IC50 data for five compounds are collected here from US8143273B2, “Quinolizidine and indolizidine derivatives” (Hoffman-La Roche Inc., priority 2010, dated 2012).

The target in this assay is T1, mGlyT-1b (Mus musculus, UniProt P28571).
T1 construct: host or cells: Flp-In CHO
T1 sequence (P28571 1-651 isoform P28571-2): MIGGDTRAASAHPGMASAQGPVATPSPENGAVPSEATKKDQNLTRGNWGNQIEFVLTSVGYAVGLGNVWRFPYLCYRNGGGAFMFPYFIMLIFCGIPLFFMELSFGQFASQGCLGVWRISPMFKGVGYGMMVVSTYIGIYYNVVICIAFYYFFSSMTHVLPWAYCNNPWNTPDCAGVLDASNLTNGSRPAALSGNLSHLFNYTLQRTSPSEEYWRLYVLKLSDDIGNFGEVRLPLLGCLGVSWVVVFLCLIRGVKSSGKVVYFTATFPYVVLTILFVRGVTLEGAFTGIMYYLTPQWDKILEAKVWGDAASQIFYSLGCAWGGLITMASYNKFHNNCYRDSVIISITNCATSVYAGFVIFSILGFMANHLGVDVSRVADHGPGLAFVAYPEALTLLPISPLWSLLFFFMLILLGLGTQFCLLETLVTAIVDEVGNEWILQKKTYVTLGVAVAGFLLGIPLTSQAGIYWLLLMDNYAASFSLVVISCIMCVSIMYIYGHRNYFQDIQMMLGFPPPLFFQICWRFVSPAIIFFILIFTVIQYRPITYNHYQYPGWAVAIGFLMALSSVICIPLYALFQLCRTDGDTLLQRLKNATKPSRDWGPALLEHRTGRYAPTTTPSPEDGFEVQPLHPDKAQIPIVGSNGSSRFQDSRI
Nature of the assay: Glycine uptake inhibition assay (mGlyT-1b). The format is cell-based. The conditions noted are these: [3H]-glycine uptake in Flp-In CHO cells transfected with mGlyT-1b cDNA. As for the experimental part:
DMEM complete medium: Nutrient mixture F-12 (Gibco Life-technologies), fetal bovine serum (FBS) 5%, (Gibco life technologies), Penicillin/Streptomycinl % (Gibco life technologies), Hygromycin 0.6 mg/ml (Gibco life technologies), Glutamine 1 mM Gibco life technologies)
Uptake buffer (UB): 150 mM NaCl, 10 mM Hepes-Tris, pH 7.4, 1 mM CaCl2, 2.5 mM KCl, 2.5 mM MgSO4, 10 mM (+) D-glucose.
Flp-In™ CHO (Invitrogen Cat no R758-07) cells stably transfected with mGlyTlb cDNA.
Glycine uptake inhibition assay (mGlyT-1b)
On day 1 mammalian cells, (Flp-In™ CHO), transfected with mGlyT-1b cDNA, were plated at the density of 40,000 cells/well in complete F-12 medium, without hygromycin in 96-well culture plates. On day 2, the medium was aspirated and the cells were washed twice with uptake buffer (UB). The cells were then incubated for 20 min at 22° C. with either (i) no potential competitor, (ii) 10 mM non-radioactive glycine, (iii) a concentration of a potential inhibitor. A range of concentrations of the potential inhibitor was used to generate data for calculating the concentration of inhibitor resulting in 50% of the effect (e.g. IC50, the concentration of the competitor inhibiting glycine uptake of 50%). A solution was then immediately added containing [^3H]-glycine 60 nM (11-16 Ci/mmol) and 25 μM non-radioactive glycine. The plates were incubated with gentle shaking and the reaction was stopped by aspiration of the mixture and washing (three times) with ice-cold UB. The cells were lysed with scintillation liquid, shaken 3 hours and the radioactivity in the cells was counted using a scintillation counter.
As usually defined, the IC50 is the concentration needed to halve the response being measured. The compound `COc1cc(C(F)(F)F)cc(SC)c1C(=O)N[C@]1(c2ccccc2)CCCN2CCCC[C@@H]21` (racemic) [Example 1, 2-Methoxy-6-methylsulfanyl-N-((1S,R; 9aR,S)-1-phenyl-octahydro-quinolizin-1-yl)-4-trifluoromethyl-benzamide] gave an IC50 of 80 nM.

`COc1cc(C(F)(F)F)cc(SC)c1C(=O)NC1(c2ccccc2)CCC2CCCCN2C1` (centres unmarked) [Example 5, 2-Methoxy-6-methylsulfanyl-N-(3-phenyl-octahydro-quinolizin-3-yl)-4-trifluoromethyl-benzamide] had an IC50 of 28 nM. This IC50 is about 2.9-fold lower than that of the compound before.

For `COc1cc(C(F)(F)F)cc(SC)c1C(=O)NC1(c2ccccc2)CCC2CCCN2C1` (single isomer, unassigned; diastereoisomer 2) [Example 4, 2-Methoxy-6-methylsulfanyl-N-(6-phenyl-octahydro-indolizin-6-yl)-4-trifluoromethyl-benzamide (diastereoisomer 2)], the concentration for half-maximal inhibition (IC50) amounted to 13 nM. This IC50 is about 2.2-fold lower than that of the compound before.

For `COc1cc(C(F)(F)F)cc(SC)c1C(=O)N[C@]1(c2ccccc2)CCCN2CCC[C@@H]21` (racemic) [Example 2, 2-Methoxy-6-methylsulfanyl-N-((8S,R; 8aR,S)-8-phenyl-octahydro-indolizin-8-yl)-4-trifluoromethyl-benzamide], the IC50 was determined as 25 nM.

For the compound `COc1cc(C(F)(F)F)cc(SC)c1C(=O)NC1(c2ccccc2)CCC2CCCN2C1` (single isomer, unassigned; diastereoisomer 1) [Example 3, 2-Methoxy-6-methylsulfanyl-N-(6-phenyl-octahydro-indolizin-6-yl)-4-trifluoromethyl-benzamide (diastereoisomer 1)], the IC50 was determined as 17 nM. The IC50 values of the last two compounds are within 1.5-fold of each other.
